Data set [1] concerns transformed human keratinocyte cell line (FEP 1811). In words: Clonogenic survival cell culture assay for cytotoxicity. It counts as cell-based. The note with it: Homo sapiens, Keratinocyte, light or radiation study; un-irradiated keratinocytes, one hour drug exposure, colonies counted after eight days; read-out: C50 (concentration of radioprotector that results in 50% clonogenic survival). An outline of the steps:
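Mid-log monolayers exposed to test drug for 1 h, then pronase-dispersed and plated; colonies counted after 8 days. For […], irradiation at 0.6 Gy per minute began 30 min after drug addition, with total drug exposure held at 60 min before plating for clonogenic survival.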

Data set [2] deals with mice. In words: Radioprotection of mouse jejunum, subcutaneous administration: local reaction at injection site. It counts as in vivo. On the procedure: 2-Hydroxypropyl-β-cyclodextrin (HPCD, Sigma-Aldrich, typical MW 1540) vehicle solution was prepared by dissolving 3.6 g of HPCD in 9.3 mL of phosphate buffered saline (PBS) resulting in 30% v/w solution. […] The concentration of M2PB was measured following appropriate dilution in 45% MeOH 0.1% TFA using an extinction coefficient […] at 345 nm. The M2PB/HPCD stock was diluted to 8.75 mg/mL (22 mM) in HPCD vehicle to produce the final M2PB/HPCD formulation, which was injected subcutaneously into mice, between the shoulder blades (scruff of the neck) at a volume of 8×10^−3 ml/g body weight.
The subsequent irradiation and analysis was as described for Example 56.

For data set [3], the system named is mouse jejunum crypt clonogens. The experiment in a line: Radioprotection of mouse jejunum by intravenous 2PH (surviving crypt clonogens). It counts as in vivo, C3H/HeJ mice. On the procedure: C3H/HeJ mice were administered 2PH by intravenous (tail vein) injection (30 mM solution in acetate-buffered saline, pH5; 150 mg/kg) 2 hours prior to whole body irradiation (up to 19 Gy) with ^137Cs γ-rays (GammaCell 40 Irradiator, Nordion International Inc., Canada) at a dose rate of 0.73 Gy/min, in groups of 5. The mice were euthanised 3 days 14 hours post-irradiation and the jejunum excised. Five 1 cm jejunum sections were taken from each mouse and bundled with micropore tape before being fixed in neutral buffered formalin. Samples are then paraffin embedded, sectioned and stained with Hematoxylin-Eosin. The densely stained colonies (>10 cells) arising from proliferation of surviving crypt clonogens were counted and scored on the basis of colonies per circumference.
The data for each of the two experimental groups was fitted to the expression: N(D)=N0(1−e^−Se^−αD) Where: • N0 is the initial number of clonogens per circumference, • N(D) the number of surviving clonogens per circumference after a radiation dose of D Gy, • S is the number of clonogens per crypt, and • α is the reciprocal of radiation dose corresponding to a lethal event.

Where [4] appears, read: subcutaneous solutions in polyethylene glycol (MW 400), similar experiments with the jejunum model.

As a reminder, the melting point is the temperature, or range, at which the solid turns liquid.

Take `CN1CCN(c2ccc3nc(-c4ccc5nc(-c6ccccn6)[nH]c5c4)[nH]c3c2)CC1` [Example 2, 2-(5′-(5″-(4′″-Methylpiperazin-1′″-yl)benzimidazol-2″-yl)benzimidazol-2′-yl)pyridine]: the IC50 in data set [1] turned out to be 101 µM. Moreover, in data set [2] (setting [4]), the “local reaction or toxicity at the site of subcutaneous injection” value is “had been observed”. Also, in data set [3] (150 mg/kg intravenous 2 hours prior to whole body irradiation, control 0.529+/−0.048), the “α (reciprocal of radiation dose corresponding to a lethal event), derived by curve-fitting” value was 0.431+/−0.039 Gy−1. Also, in data set [3] (150 mg/kg intravenous, from α control and α 2PH), the dose modification factor was 1.23+/−0.15.
In the case of `Cc1ccc(-c2nc3ccc(-c4nc5ccc(N6CCN(C)CC6)cc5[nH]4)cc3[nH]2)nc1` [Example 6, 5-Methyl-2-(5′-(5″-(4′″-methylpiperazin-1′″-yl)benzimidazol-2″-yl)benzimidazol-2′-yl)pyridine], the melting point fell in the range of 200 to 204 °C. The IC50 in data set [1] was 58.4 µM.
Take `c1ccc(-c2nc3ccc(-c4nc5ccc(N6CCOCC6)cc5[nH]4)cc3[nH]2)nc1` [Example 19, 2-(5′-(5″-Morpholinobenzimidazol-2″-yl)benzimidazol-2′-yl)pyridine]: the IC50 in data set [1] turned out to be 150 µM. Also, the “local reaction or toxicity at the site of subcutaneous injection” value in data set [2] (M2PB/HPCD formulation (complex with 2-hydroxypropyl-β-cyclodextrin), 8.75 mg/mL subcutaneous) was “no indication of local reaction or toxicity”; in data set [2] (setting [4]), “had been observed”.
For the compound `OC1CCN(c2ccc3nc(-c4ccc5nc(-c6cc7ccccc7cn6)[nH]c5c4)[nH]c3c2)CC1` [Example 23, 3-(5′-(5″-(4′″-Hydroxypiperidin-1′″-yl)benzimidazol-2″-yl)benzimidazol-2′-yl)isoquinoline], the melting point was 222 °C (dec.). The IC50 in data set [1] came out at 589 µM.

The record behind these values is USRE46943E1, “Radioprotector compounds and methods” (PETER MACCALLUM CANCER INSTITUTE, priority 2010, dated 2018).
